Marks after values point to notes of the source that are not given here.
Tests used:
[1] = cited from earlier work
[2] = Biodistribution assessment with Cy5.5 as Dox analog; format: in vivo, mice; settings: organs harvested 3.5 hours after treatment, imaging
Excerpt: To assess bio-distribution of the drug post ultrasound treatment, Cy5.5 was used as a fluorescent Dox analog, injected i.v. as: Cy5.5-NH2, liposomal Cy5.5, liposomal Cy5.5+MB, Cy5.5LPX, and mice were euthanized 3.5 hrs later. Blood, tumor, spleen, kidney, liver, heart, lung, brain, skin on the back, muscle, femur (bone), and foot were imaged post-mortem and measured using a Xenogen IVIS 200 imaging system.
This example determines the fate of liposomal lipids and Dox after in vivo delivery. […]
To further quantify the distribution of Cy5.5-NH2, tumor, spleen, kidney, liver, heart, and lung were wet-weighed and […] of each tissue specimen were homogenized in 200 μL lysis buffer (50 mM HEPES, 50 mM NaCl, 1% Triton X-100, 5 mM EDTA, and 15 mM DTT) using a sonicator homogenizer (Sonicator Ultrasonic Processor XL, Misonix, Farmingdale, N.Y.) in Eppendorf tubes immersed in an ice-water. […]
50 μL supernatant of each specimen was added in black 384 well plates. Cy5.5-NH2 fluorescence intensity of 3 parallel samples of each organ was determined at Ex/Em 680/710 nm using a plate reader (Infinite 200 PRO, Tecan, Männedorf, Switzerland). […]

[3] = tested on: left ventricular function; assay: Assessment of cardiac function by serial echocardiography; format: in vivo, mice
Description: Two-dimensional short-axis images were obtained using a high-resolution Micro-Ultrasound system (Vevo 2100, VisualSonics Inc.) in B-mode and M-mode from parasternal short-axis view. […] LV mass index was calculated as LV mass/mouse body weight (g) on the day of measurement. […] Tumor volume and cardiac function were serially evaluated for up to 42 days using ultrasound imaging. Echocardiography was performed every 7 days after the 1st treatment. […] Ejection fraction […] and left ventricular (LV) mass index data within each treatment group were compared to that on day 0 (baseline) within the group using a two-tail t-test. The percentage of mice with changes in ejection fraction, fractional shortening and LV mass index, categorized as mild, moderate or severe, was compared between groups using Chi-square test, and differences between two groups were compared using Fisher's exact test. Kaplan-Meier survival curves were compared between groups using the log-rank test for trend.

caspase-3 = assay: Caspase-3 activity assay in heart tissue; format: in vivo, mice; settings: heart tissue homogenate
Description: Heart tissue was washed twice with cold PBS and lysed in lysis buffer (50 mM HEPES, pH 7.4, with 5 Mm CHAPS, and 5 mM DTT). Tissue lysates were centrifuged at 10,000 rcf for 15 min, and the total protein concentration was measured using a BCA assay kit (Thermo Fisher Scientific, MA). Caspase-3 activity assay was performed in triplicate in 96-well plates. For each protease assay, 200 μL assay buffer (100 mM HEPES, pH 7.2, 10% sucrose, 0.1% CHAPS, 1 Mm Na-EDTA, and 2 mM DTT) containing 50 μM Ac-DEVD-AMC (Enzo life, Farmingdale, N.Y.) was incubated with 50 μg lysate protein at 37° C. for 1 h.
Caspase-3 activity was measured by AMC liberation from Ac-DEVD-AMC substrate at 380/460 nm using a plate reader (Beckman Coulter, DTX-880 Multimode detector, Brea, Calif.). Relative fluorescence of substrate control was subtracted as background emission. Free AMC (Enzo life, NY) was used to make the standard curve: […]

[4] = design: risk of cardiotoxicity occurrence: dose or concentration left out as unconfirmed; settings: cited from earlier work
[5] = tested on: MCA 205 murine sarcoma cells; assay: Acute cell viability, trypan blue exclusion assay; format: cell-based; settings: 8 μg/mL, without US
Description: (§1) MCA 205 murine sarcoma cells (generously provided by Dr. Walter J. Storkus at the University of Pittsburgh School of Medicine) were cultured in RPMI-1640 (Lonza, Biowhittaker, Basel, Switzerland), supplemented with 10% heat deactivated fetal bovine serum (FBS) and 1% penicillin-streptomycin at 37° C., and sub-cultured every 2 days and used before 8 passage.
MCA 205 cells were suspended (5×10^4 cells in 500 μL media) in capped sterile polystyrene tubes. One of the following formulations was added to the tubes: DoxLPX, LDox, free Dox, ELPX, LDox+MB (e.g, unconjugated LDox and MB). […] Cell viability was evaluated 30 min later using the trypan blue exclusion assay where controls comprised identical tubes not exposed to US.
Live cells and total cell number were counted on a hemocytometer using an inverted microscope (Motic AE21, Scientific Instrument Company, Campbell, Calif.). Acute cell viability was quantified as the number of the live cells (trypan blue negative) divided by the total cell numbers. Each treatment condition was repeated independently three times.

MCA205 sarcoma = assay: In vivo tumor treatment: tumor growth and survival; design: species or system mice; settings: for Median survival time ± standard deviation: US Pulse 3 for MB formulations
Description: This example provides in vivo studies were performed using the Pulse 3 US regime. […] Treatments were infused over 15 min via internal jugular indwelling catheter on Days 0, 3, 7, 10.
Murine sarcoma model. The animal protocols were approved by the University of Pittsburgh Institutional Animal Care and Use Committee and conform to the Policy on Human Care and Use of Laboratory Animals. Female mice were used due to their susceptibility to Dox cardiotoxicity. Lipshultz et al., “Assessment of dexrazoxane as a cardioprotectant in doxorubicin-treated children with high-risk acute lymphoblastic leukaemia: long-term follow-up of a prospective, randomised, multicentre trial” Lancet Oncol. […] Eight-week-old female C57BL/6 mice were obtained from Jackson lab and housed in the animal facility of the Division of Laboratory Animal Resources at the University of Pittsburgh.
The pulse was repeated 500 times, with the pulse train repeated every 2.5 s to allow MB reperfusion into the target area. The overall duty cycle was 10%. The spatial peak temporal average intensity was 0.16 W/cm^2. The US treatment was continued for approximately 3-5 minutes after the intravenous MB infusion was completed to achieve complete MB destruction (e.g., ˜12-15 min total sonication time).
Tumor growth was evaluated by high-resolution 3D US imaging of the tumor using automated scanning (Vevo2100, Visualsonics, Ontario, Canada) at 21 MHz with a 0.2-mm step size between cross-sections. Tumor cross-sections were manually outlined and tumor volumes were calculated from 3D reconstructions of the outlined area. This technique can measure subcutaneous tumors with an irregular shape with an accuracy of ±20 mm^3. Tumor growth over time was fit to an exponential curve (y)=X0·e^kt, where X0 represents initial tumor volume, and t stands for time in days. Doubling times (DT) were calculated as DT=(Ln2)/k.
Treatments with various Dox formulations commenced when tumor volume reached 40-90 mm^3. The mice were randomly assigned to 1 of 6 treatment groups.
On the first day of treatment, the tumor bearing mice were anesthetized with 2% isoflurane in oxygen and an indwelling catheter was placed in the internal jugular vein to facilitate multiple intravenous infusions over time. See, FIG. 1B. […] See, FIG. 1B.
Tumor volume and cardiac function were serially evaluated for up to 42 days using ultrasound imaging. Echocardiography was performed every 7 days after the 1st treatment. On day 42, or if tumor volume exceeded 1,600 mm^3 before day 42, the mice were euthanized under deep anesthesia (5% isofluorane). Tumor and heart were harvested, washed with cold saline, then were cryopreserved or fixed with 10% formalin overnight, embedding in paraffin block and sectioning for further histology analysis.

heart tissue = assay: Cardiac histopathology (H&E) and fibrosis analysis (Sirius red/fast green); format: in vivo, mice; settings: for myocardial fibrosis / collagen deposition: Sirius red/fast green staining
Description: Routine hematoxylin and eosin (H&E) stained heart tissue slides were made for histologic examination. Sirius red/fast green staining was performed on heart tissue sections post-fixed in paraffin blocks. Twenty-three (23) Images were obtained on an Olympus IX81 microscope interfaced with a digital CCD camera (Olympus DP71) and quantitated using ImageJ 1.5 software.

[6] = tested on: MCA 205 murine sarcoma cells; assay: Long-term cell viability, alamaBlue assay; format: cell-based; settings: without US, 24, 48, 72 h
Description: as §1
Control conditions included cells mixed with free Dox, LDox, DoxLPX, ELPX without US treatment and untreated cells. After 1 h incubation, the wells were replaced with 500 μL fresh media. At 24, 48, and 72 h, the cells were incubated in 500 μL media containing 50 μg/mL alamaBlue® for 1 h. Thereafter, 100 μL media in each well was sampled and assayed on a plate reader (Beckman Coulter, DTX-880 Multimode detector, Brea, Calif.) at a wavelength of λex=530 nm and λem=590 nm. The same volume of media containing alamaBlue® was added in empty wells in the same 24-well plate to be used as the baseline absorbance. The percentage of viability at 24, 48, and 72 h was calculated by normalizing to that of untreated cells. As Dox-induced cytotoxicity takes about 48 hours to manifest, acute cytotoxicity (trypan blue assay) was attributed to ultrasound-microbubble interaction. […]

For C[N+]1=C(/C=C/C=C/C=C2/N(CCCCCC(=O)NCCCCCCN)c3ccc4ccccc4c3C2(C)C)C(C)(C)c2c1ccc1ccccc21.Cl.[Cl-] [Cy5.5-NH2, Cyanine5.5-amine], the water solubility [1] is listed as “moderate water solubility”, the “acid dissociation constant (pKa)” value ([1]; primary amine group) is listed as “higher than 7” and the “ex vivo Cy5.5 fluorescence in organs” value [2] is listed as “noticeable Cy5.5 fluorescence in the heart and skeletal muscle”.

With COc1cccc2c1C(=O)c1c(O)c3c(c(O)c1C2=O)C[C@@](O)(C(=O)CO)C[C@@H]3O[C@H]1C[C@H](N)[C@H](O)[C@H](C)O1 [Dox, Doxorubicin] the “LVIDs, LVIDd change” value ([3]; Day 14 or Day 21 vs. Day 0) was “Significant increases”, the “mice with severely increased LV mass index” value ([3]; Day 21 vs. Day 0) was 20.0% and the “mice with severe reduction in EF” value ([3]; day 21) was 40%. For the same compound, the “mice with severe reduction in FS” value ([3]; day 21) was 30%, the “LV mass index change” value ([3]; vs. Day 0) was “significantly increased LV mass index on day 14” and the “LV mass over time” value ([3]; vs. baseline, up to Day 21) was “significantly greater than baseline by Day 14”. The “ejection fraction (EF) and fractional shortening (FS) over time” value ([3]; vs. baseline, up to Day 21) was “progressive decline in ejection fraction (EF) and fractional shortening (FS)”, the “caspase-3 activity in cardiac tissue” value (caspase-3) was “higher than that in mice treated with DoxLPX+US” and the “risk of cardiotoxicity occurrence” value ([4]; clinically) was 26%. The “maximal tolerated cumulative dose” value ([4]; in vivo) was 400-550 mg/m2, the cell membrane integrity [5] was “did not change the cell membrane integrity” and the “Median survival time ± standard deviation” value (MCA205 sarcoma; 5 mg/kg equiv. Dox i.v., 4 treatments) was 28.0 ± 7.5 days. The “Median survival time ± standard deviation” value (MCA205 sarcoma; 5 mg/kg equiv. Dox i.v., 4 treatments, listed as free Dox) was 28 days, the “prolongation of median survival” value (MCA205 sarcoma; as compared to controls) was 14% and the “tumor volume as % of original (baseline) tumor volume” value (MCA205 sarcoma; by Day 17.5) was 610%. For the same compound, the Tumor doubling time (MCA205 sarcoma; exponential fit of tumor volume, 5 mg/kg equiv. Dox i.v., 4 treatments) was 7.1 ± 1.0**^,# Day, the “myocardial fibrosis / collagen deposition” value (heart tissue) was “significantly more areas of patchy myocardial interstitial fibrosis and perivascular fibrosis” and the “myocardial fibrosis / collagen deposition” value (heart tissue; listed as free Dox) was “induced moderate myocardial interstitial and perivascular fibrosis”. The “histological damage to heart tissue” value (heart tissue; hematoxylin/eosin staining, accumulative dosage 20 mg/kg) was “disorganization of myofibrillar arrays (first left panel of Dox group) and focal cytoplasmic vacuolization”, the “cytotoxicity / cell viability” value ([6]; listed as Free Dox) was “more cytotoxicity than DoxLPX in the absence of US” and the “cytotoxicity / cell viability” value ([6]; listed as free Dox) was “highest cytotoxicity at 24, 48, and 72 h”.

From US20220401574A1, “CARDIOPROTECTIVE MICROBUBBLE-LIPOSOMAL DRUG COMPLEXES” (UNIVERSITY OF PITTSBURGH - OF THE COMMONWEALTH SYSTEM OF …, priority 2019, published 2022)
